Results published in patent publication US9297813B2, “Targeting metabolic enzymes in human cancer” (Agency for Science, Technology and Research, priority 2010, dated 2016).

Tests used:
[1] = biological target: T1, GLDC (Homo sapiens, UniProt P23378); conditions: cited from earlier work
T1 sequence (P23378 36-1020): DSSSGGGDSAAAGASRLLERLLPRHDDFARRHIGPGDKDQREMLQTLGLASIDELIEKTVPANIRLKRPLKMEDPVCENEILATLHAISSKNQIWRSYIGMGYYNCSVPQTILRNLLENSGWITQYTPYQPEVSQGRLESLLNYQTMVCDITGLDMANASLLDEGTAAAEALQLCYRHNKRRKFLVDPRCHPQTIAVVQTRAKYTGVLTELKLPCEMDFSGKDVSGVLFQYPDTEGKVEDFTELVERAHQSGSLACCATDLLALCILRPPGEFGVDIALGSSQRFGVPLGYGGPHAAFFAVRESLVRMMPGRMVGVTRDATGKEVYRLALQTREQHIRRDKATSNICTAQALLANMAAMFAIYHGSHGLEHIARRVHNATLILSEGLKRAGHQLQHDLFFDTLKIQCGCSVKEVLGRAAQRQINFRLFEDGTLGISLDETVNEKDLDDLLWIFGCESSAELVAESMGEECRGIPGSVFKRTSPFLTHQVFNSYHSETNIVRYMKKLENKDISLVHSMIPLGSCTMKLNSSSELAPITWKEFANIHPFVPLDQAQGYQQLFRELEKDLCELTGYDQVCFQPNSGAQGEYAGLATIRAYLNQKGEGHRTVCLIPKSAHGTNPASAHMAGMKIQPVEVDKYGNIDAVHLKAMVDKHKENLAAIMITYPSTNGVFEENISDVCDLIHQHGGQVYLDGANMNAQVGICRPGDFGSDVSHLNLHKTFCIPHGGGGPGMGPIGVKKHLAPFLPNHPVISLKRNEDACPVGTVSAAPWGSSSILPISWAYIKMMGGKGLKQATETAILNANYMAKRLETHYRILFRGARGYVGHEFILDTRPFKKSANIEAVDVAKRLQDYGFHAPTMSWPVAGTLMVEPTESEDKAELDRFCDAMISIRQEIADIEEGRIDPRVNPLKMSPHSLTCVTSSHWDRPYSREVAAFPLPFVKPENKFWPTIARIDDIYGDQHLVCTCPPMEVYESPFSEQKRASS

[2] = tested on: cytoplasmic and mitochondrial aspartate aminotransferase; conditions: cited from earlier work
[3] = biological target: T1, GLDC; experiment: Victorin: inhibition of GLDC expression, tumour formation and cell proliferation (no method given)
[4] = tested on: 3T3 cells; experiment: Adherent colony formation with methotrexate, 3T3 cells overexpressing GLDC; type: cell-based, mouse; conditions: low doses of methotrexate
Method: (§1) (E) Effects of the anti-folate drug methotrexate on colony formation after GLDC overexpression or knockdown. 3T3 and HLF cells overexpressing GLDC were plated at clonal density and exposed to varying concentrations of methotrexate for 8 days. A549 cells with GLDC knockdown were plated in soft agar at clonal density and exposed to varying concentrations of methotrexate for 14 days.
(§2) Adherent colony formation was performed by seeding 200-3000 single cells into 10 cm-culture dish and maintained for 10-14 days in DMEM/10% FBS. Colonies were stained by Wright-Giemsa and those colonies containing more than 50 cells were counted. For methotrexate (Sigma) treatment assay, cells were maintained in growth medium containing serial dilution of methotrexate (0, 0.1, 0.2, 0.5, 1, 2, 5, 10, 20 uM) and fresh medium were changed every 3 days.

[5] = tested on: HLF cells; experiment: Adherent colony formation with methotrexate, HLF cells overexpressing GLDC; type: cell-based, human; conditions: low doses of methotrexate
Method: as §1, §2

[6] = tested on: A549 cells; experiment: Soft agar colony formation with methotrexate, A549 cells with GLDC knockdown; type: cell-based, human; conditions: methotrexate in combination with GLDC shRNA versus either alone, 14 days
[7] = tested on: A549 cells; experiment: Soft agar colony formation, sarcosine rescue after GLDC knockdown; type: cell-based, human; conditions: 10 μM sarcosine
Method: (F) Effects of sarcosine on soft agar colony formation after GLDC knockdown in A549 cells. 1000 cells were seeded in soft agar at clonal density and exposed to 10 μM sarcosine for 14 days.
Soft agar assays were conducted as described previously (Viswanathan et al., 2009). We stained colonies with 1% INT and counted them after 3-4 weeks of growth. For sarcosine rescue experiment, 10 μM of sarcosine (sigma) or PBS were added to top cells layer of agar and growth medium containing sarcosine were changed every 3 days before counting colonies.

Structure (SMILES): NOCC(=O)O [Aminooxyacetate, (Aminooxy) acetate]
- GLDC binding and inhibition of GLDC activity [1]: binds to GLDC and inhibits GLDC activity
- inhibition of aspartate aminotransferase or glutamate transaminases [2]: powerful inhibitor

Structure (SMILES): CC(C[C@H](NC(=O)C(O)O)C(=O)N[C@H](C(=O)N[C@@H]1C(=O)N/C(=C/Cl)C(=O)N[C@H](C(=O)O)CC2=C(CC(O)C2=O)O[C@H]1C(C)C)[C@H](O)CCCN)C(Cl)Cl (some centres unmarked) [Victorin]
- inhibition of GLDC expression [3]: able to inhibit GLDC expression
- tumour formation and cell proliferation [3]: block or reduced tumour formation and cell proliferation

Structure (SMILES): CN(Cc1cnc2nc(N)nc(N)c2n1)c1ccc(C(=O)N[C@@H](CCC(=O)O)C(=O)O)cc1 [methotrexate]
- GLDC-induced proliferation (colony formation) ([4]; 3T3 cells overexpressing GLDC, 8 days): specifically abrogated GLDC-induced proliferation
- effect on control cells ([4]; control 3T3 cells): little effects
- GLDC-induced proliferation (colony formation) ([5]; HLF cells overexpressing GLDC, 8 days): specifically abrogated GLDC-induced proliferation
- effect on control cells ([5]; control HLF cells): little effects
- killing of transformed A549 cells [6]: killed transformed A549 cells much more effectively than either alone

Structure (SMILES): CNCC(=O)O [sarcosine, N-methylglycine]
- rescue of proliferation defect upon GLDC knockdown ([7]; 14 days, A549 cells with GLDC retroviral knockdown): significantly rescue the proliferation defect
- effect on control A549 cells ([7]; control A549 cells): little effect
